For test [1], the target named is T1, hVR1 (Homo sapiens, UniProt Q8NER1).
T1 construct: expressed in transfected cells; host or cells: T-REx HEK 293 (Invitrogen), pcDNA5/TO vector
The test can be described thus: Calcium uptake assay (Fura2, Flex Station) in HEK 293 cells expressing hVR1. Type of test: cell-based. The following applies: inhibition of agonist-induced calcium influx; for % Inhib. @ 0.3 μM: 0.3 μM compound; for inhibition at 0.3 µM: HEK293, 0.3 μM compound, read-out: % Inhib. @ 0.3 μM.

Test [2] addresses T2, HsVR1 (Homo sapiens, UniProt Q8NER1).
T2 construct: expressed in transfected cells; host or cells: Xenopus oocytes injected with HsVR1 RNA
Kind of test: Two-electrode voltage clamp recording (OpusXpress) of capsaicin induced VR1 current in Xenopus oocytes injected with HsVR1 RNA. It is filed as cell-based. Here is the method: Oocytes are prepared by surgically removing Xenopus ovaries obtained from NASCO. The oocytes are isolated by enzymatic dissociation using collagenase (Worthington, 2 mg/ml). Oocytes are then individually injected with HsVR1 RNA. Each oocyte receives 64 nl of RNA solution in water at a concentration of 0.5 μg/μl. Injected oocytes are stored in standard oocyte incubation solution, ND96, containing (in mM) 96 NaCl, 2 KCl, 1 MgCl2, 1.8 CaCl2 and 50 μg/ml Gentamicin at 16° C. […] Eight oocytes are placed in the recording chambers. Each oocyte is impaled by 2 glass electrodes having resistances of 0.5 to 1 MOhm when filled with a 3 M KCl solution. Electrode advancement and oocyte impalement are under software control (OpusXpress® 1.1 Molecular Devices Corporation). The solutions are prepared in 96 well plates and robotically pipetted into the oocyte recording chambers by an 8 channel pipettor. Test solution delivery to the oocytes during the experiment is also under software control. […] The standard test concentrations for the compounds tested here usually range from 0.3 to 2000 nM. Quantitative measurement of VR1 current block is done by calculating the area under the curve described by the inward current. […] These points are then plotted on a logarithmic scale and fitted by a Hill function. The IC50 is calculated from the resulting Hill fit.
(In general: Two-electrode voltage clamp holds a large cell at a set potential and records current.)

T1 sequence (Q8NER1 whole entry): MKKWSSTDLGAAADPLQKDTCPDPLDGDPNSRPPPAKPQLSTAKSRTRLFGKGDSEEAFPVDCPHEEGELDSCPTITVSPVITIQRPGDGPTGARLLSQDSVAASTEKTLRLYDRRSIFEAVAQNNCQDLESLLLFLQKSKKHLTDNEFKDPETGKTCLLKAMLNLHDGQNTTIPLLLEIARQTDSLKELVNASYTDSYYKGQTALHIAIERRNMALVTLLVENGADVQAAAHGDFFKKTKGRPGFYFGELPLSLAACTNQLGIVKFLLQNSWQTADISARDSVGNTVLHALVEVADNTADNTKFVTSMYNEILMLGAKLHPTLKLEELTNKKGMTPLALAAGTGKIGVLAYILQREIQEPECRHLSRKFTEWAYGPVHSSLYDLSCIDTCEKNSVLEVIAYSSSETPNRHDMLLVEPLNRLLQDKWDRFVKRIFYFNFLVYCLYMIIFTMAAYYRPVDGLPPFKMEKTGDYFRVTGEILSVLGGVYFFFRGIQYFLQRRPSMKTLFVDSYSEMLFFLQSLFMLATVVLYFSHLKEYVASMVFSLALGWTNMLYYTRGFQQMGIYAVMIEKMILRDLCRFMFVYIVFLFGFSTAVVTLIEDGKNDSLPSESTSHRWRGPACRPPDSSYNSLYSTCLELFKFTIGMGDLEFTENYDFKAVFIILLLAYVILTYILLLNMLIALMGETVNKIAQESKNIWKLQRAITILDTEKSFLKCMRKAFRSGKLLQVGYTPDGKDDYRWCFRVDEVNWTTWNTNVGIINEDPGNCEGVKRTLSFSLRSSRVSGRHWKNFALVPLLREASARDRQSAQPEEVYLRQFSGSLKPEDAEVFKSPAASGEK
T2 sequence (Q8NER1 whole entry): as above

`Cc1cc(C2CC2C(F)(F)F)ccc1C(=O)Nc1ccc2c(c1)OCCO2` (single isomer, unassigned) [Compound 8, N-(2,3-dihydrobenzo[b][1,4]dioxin-6-yl)-2-methyl-4-(2-(trifluoromethyl)cyclopropyl)benzamide]: the “% Inhib. @ 0.3 μM” value in test [1] is recorded as “+ (compound exhibited 0-25% inhibition of calcium ion influx)”.

Turning to `Cc1cc(C2CC2C(F)(F)F)ccc1C(=O)Nc1cccc2c1CCCC2` (single isomer, unassigned) [Compound 9, 2-methyl-N-(5,6,7,8-tetrahydronaphthalen-1-yl)-4-(2-(trifluoromethyl)cyclopropyl)benzamide], the inhibition at 0.3 µM in test [1] lay in the range of 0 to 25%.

For the compound `COc1ccc(NC(=O)c2ccc(C3CC3C(F)(F)F)cc2C)cn1` (single isomer, unassigned) [Compound 10, N-(6-methoxypyridin-3-yl)-2-methyl-4-(2-(trifluoromethyl)cyclopropyl)benzamide], the inhibition at 0.3 µM in test [1] fell in the range of 25 to 50%.

For the compound `Cc1nc2cc(NC(=O)c3ccc(C4CC4C(F)(F)F)cc3C)ccc2s1` (single isomer, unassigned) [Compound 11, 2-methyl-N-(2-methylbenzo[d]thiazol-5-yl)-4-(2-(trifluoromethyl)cyclopropyl)benzamide], the inhibition at 0.3 µM in test [1] was more than 75%.

With `Cc1cc(C2CC2C(F)(F)F)ccc1C(=O)Nc1ccc2c(c1)OCCO2` (single isomer, unassigned) [Compound 13, N-(2,3-dihydrobenzo[b][1,4]dioxin-6-yl)-2-methyl-4-(2-(trifluoromethyl)cyclopropyl)benzamide], the “% Inhib. @ 0.3 μM” value in test [1] is “+++ (compound exhibited 50-75% inhibition of calcium ion influx)”.

Consider `Cc1cc(C2CC2C(F)(F)F)ccc1C(=O)Nc1ccc2sc(CO)nc2c1` (single isomer, unassigned) [Compound 15], for which the inhibition at 0.3 µM in test [1] was more than 75%.

Take `COc1cccc(NC(=O)c2ccc(C3CC3C(F)(F)F)cc2C)c1` (single isomer, unassigned) [Compound 16, N-(3-methoxyphenyl)-2-methyl-4-(2-(trifluoromethyl)cyclopropyl)benzamide]: in test [1], the inhibition at 0.3 µM was in the range of 25 to 50%.

Regarding `Cc1cc(C2CC2C(F)(F)F)ccc1C(=O)Nc1cnc2ccccc2c1` (single isomer, unassigned) [Compound 17, 2-methyl-N-(quinolin-3-yl)-4-(2-(trifluoromethyl)cyclopropyl)benzamide], the “% Inhib. @ 0.3 μM” value in test [1] is given as “+++ (compound exhibited 50-75% inhibition of calcium ion influx)”.

`Cc1cc(C2CC2C(F)(F)F)ccc1C(=O)Nc1cnc2ccccc2c1` (single isomer, unassigned) [Compound 18, 2-methyl-N-(quinolin-3-yl)-4-(2-(trifluoromethyl)cyclopropyl)benzamide]: the “% Inhib. @ 0.3 μM” value in test [1] was “+++ (compound exhibited 50-75% inhibition of calcium ion influx)”.

On to `Cc1cc(C2CC2C(F)(F)F)ccc1C(=O)Nc1cnc2ccccc2c1` (single isomer, unassigned) [Compound 19, 2-methyl-N-(quinolin-3-yl)-4-(2-(trifluoromethyl)cyclopropyl)benzamide], for which the “% Inhib. @ 0.3 μM” value in test [1] was “+ (compound exhibited 0-25% inhibition of calcium ion influx)”.

Take `Cc1cc(C2CC2C(F)(F)F)ccc1C(=O)Nc1cnc2ccccc2c1` (single isomer, unassigned) [Compound 20, 2-methyl-N-(quinolin-3-yl)-4-(2-(trifluoromethyl)cyclopropyl)benzamide]: in test [1], the “% Inhib. @ 0.3 μM” value is on record as “++ (compound exhibited 25-50% inhibition of calcium ion)”.

As to `COc1cccc(NC(=O)c2ccc(C3CC3)cc2C)c1` [Compound 1, 4-cyclopropyl-N-(3-methoxyphenyl)-2-methylbenzamide], the inhibition at 0.3 µM in test [1] fell in the range of 50 to 75%.

Turning to `Cc1cc(C2CC2)ccc1C(=O)Nc1ccc(C(C)(C)C)cc1` [Compound 2, N-(4-tert-butylphenyl)-4-cyclopropyl-2-methylbenzamide], in test [1], the inhibition at 0.3 µM lay within 0 to 25%.

Take `O=C(Nc1cnc2ccccc2c1)c1ccc(C2CC2(Cl)Cl)cc1` (centres unmarked) [Compound 3, 4-(2,2-dichlorocyclopropyl)-N-(quinolin-3-yl)benzamide]: in test [1], the inhibition at 0.3 µM was 50 to 75%.

Consider `COc1cccc(NC(=O)c2ccc(C3CC3(Cl)Cl)cc2)c1` (centres unmarked) [Compound 4, 4-(2,2-dichlorocyclopropyl)-N-(3-methoxyphenyl)benzamide], for which the inhibition at 0.3 µM in test [1] was more than 75%.

`Cc1cc(C2CC2)ccc1C(=O)Nc1cnc2ccccc2c1` [Compound 5, 4-cyclopropyl-2-methyl-N-(quinolin-3-yl)benzamide]: the inhibition at 0.3 µM in test [1] is more than 75%.

On to `Cc1nc2cc(NC(=O)c3ccc(C4CC4(Cl)Cl)cc3)ccc2s1` (centres unmarked) [Compound 6, 4-(2,2-dichlorocyclopropyl)-N-(2-methylbenzo[d]thiazol-5-yl)benzamide], for which the inhibition at 0.3 µM in test [1] is more than 75%.

What is called IC50 is the concentration that inhibits the measured activity by half. High values mean lower potency, low ones higher potency. For `Cc1nc2cc(NC(=O)c3ccc(C4CC4)cc3C)ccc2s1` [Compound 7, 4-cyclopropyl-2-methyl-N-(2-methylbenzo[d]thiazol-5-yl)benzamide], the inhibition at 0.3 µM in test [1] is more than 75%. Besides, the IC50 was 0.178 ± 0.026 µM in test [2] (250 nM capsaicin induced VR1 current, n=5 oocytes, FIG. 1) and 0.177 µM in test [2] (+/- standard error measurement, FIG. 1 legend).
